Reference: patent publication US20050227982A1, “Antileishmanial dinitroaniline sulfanomides with activity against parasite tubulin” (priority 2002, published 2005)
Where “and” joins values, the source holds several entries; their conditions need not be identical. Equal values may be shown once. Read-outs that look alike come from different tables or passages of the source.

How the values were obtained:
[1] = tested on: L. donovani promastigotes; experiment: Growth inhibition of L. donovani promastigotes; type: cell-based, Leishmania donovani; settings: read-out: IC50 vs. L. donovani promastigotes
[2] = tested on: Trypanosoma brucei brucei (MITat 1.2, variant 221); experiment: microbe, parasite or virus in culture; type: cell-based; settings: read-out: IC50, T. b. brucei variant 221
Experimental: (§1) Determination of the drug susceptibility of parasites and mammalian cells. The susceptibility of Leishmania donovani amastigote-like parasites (WHO designation: MHOM/SD/62/1S-CL2D) to growth inhibition by compounds of interest was measured in a three-day assay using the tetrazolium dye-based CellTiter reagent (Promega) (Werbovetz, K., Brendle, J., and Sackett, D. (1999) Mol. Biochem. Parasitol. 98, 53-65., and Havens, C., Bryant, N., Asher, L., Lamoreaux, L., Perfetto, S., Brendle, J., and Werbovetz, K. (2000) Mol. Biochem. Parasitol. 110, 223-236). The amastigote medium used in this assay is based on the medium mentioned by Joshi et al. (Joshi, M., Dwyer, D. M., and Nakhasi, H. L. (1993) Mol. Biochem. Parasitol. 58, 345-354). Prior to addition of fetal bovine serum to a final concentration of 20%, this amastigote medium contains 15 mM KCl, 115 mM KH2PO4, 10 mM K2HPO4, 0.5 mM MgSO4, 24 mM NaHCO3, a 1-concentration of RPMI-1640 vitamins and amino acids, 2.0 mM L-glutamine, 22 mM D-glucose, 100 units/mL penicillin, 100 ∝g/ml streptomycin, 0.1 mM adenosine, 1 ∝g/mL folate, and 25 mM MES (pH 5.5). Compounds were tested for their activity against bloodstream-form Trypanosoma brucei brucei (MITat 1.2, variant 221) axenically-cultured in HMI-9 medium , H., and Hirumi, K. (1989) J. Parasitol. 75, 985-989.) following the procedure of Ellis et al. (Ellis, J., Fish, W., Sileghem, M., and McOdimba, F. (1993) Vet. Parasitol. 50, 143-149.) with some modifications. Briefly, 100 μL of late log phase parasites were incubated in 96-well plates (Costar) at an initial concentration of 10^5 cells/ml with or without test compounds at 37° C. in a humidified 5% CO2 atmosphere for 72 hours. Twenty-five μL of a 5 mg/mL solution of MTT (prepared in phosphate buffered saline and filter sterilized) was then added to each well and plates were re-incubated at 37° C. as before for 2 h. One hundred ∝L of 20% SDS lysis buffer (prepared in 50% aqueous DMF) was added to each well and plates were incubated as before for an additional 3-4 h. Optical densities were then measured at 570 nm using SpectraMax Plus microplate reader. […] Assessment of the in vitro sensitivity of T. b. brucei Lab 110 EATRO and P. falciparum strains to compounds was performed by methods described in Donkor et al. (Donkor, I., Assefa, H., Rattendi, D., Lane, S., Vargas, M., Goldberg, B., and Bacchi, C. (2001) Eur. J. Med. Chem. 36, 531-538.) and Guan et al. (Guan, J., Kyle, D., Gerena, L., Zhang, Q., Milhous, W., and Lin, A. (2002) J. Med. Chem. 45, 2741-2748).

[3] = tested on: L. donovani axenic amastigotes; experiment: Growth inhibition of L. donovani axenic amastigotes (three-day tetrazolium dye assay); type: cell-based, Leishmania donovani
Experimental: (§2) 2000, 110, 223-236, incorporated herein by reference.^14
as §1

[4] = tested on: leishmanial tubulin; type: biochemical; settings: mean ± SD of at least one duplicate measurement, SD of controls 27.6%
Experimental: as §2
Briefly, the tubulin assembly assays are performed as follows. […] The change in turbidity was measured at 351 nm using the SpectraMax Plus microplate reader immediately after GTP addition at 30° C. (for leishmanial tubulin) or 37° C. (for brain tubulin).

[5] = tested on: T. b. brucei Lab 110 EATRO; experiment: In vitro sensitivity of T. b. brucei Lab 110 EATRO (Coulter counter, two-day); type: cell-based, Trypanosoma brucei brucei; settings: read-out: IC50, T. b. brucei Lab 110 EATRO
Experimental: as §1

[6] = tested on: P. falciparum D6 strain; experiment: In vitro sensitivity of P. falciparum D6 strain (tritiated hypoxanthine uptake); type: cell-based, Plasmodium falciparum
Experimental: as §1

[7] = tested on: J774 murine macrophages; experiment: Toxicity to J774 macrophages (three-day CellTiter assay); type: cell-based; settings: read-out: IC50, J774 macrophages
Experimental: (§3) The toxicity of compounds to J774 murine macrophages and PC3 […] cells was measured in a three-day assay using the CellTiter reagent. […] Macrophages were allowed to adhere for 24 hours, then the medium was removed and replaced with serial dilutions of the test compounds in the DMEM medium mentioned above without phenol red. After 72 hr incubation with the test compounds at 37° C. in a humidified 5% CO2 incubator, cell viability was determined using the CellTiter reagent by adding 20 μL of assay solution to each well. After a 6-7 h incubation at 37° C. to allow for color development, the absorbance of each well at 490 nm was measured in a SpectraMax Pro microplate reader (Molecular Devices). The toxicity of compounds to PC3 cells was assessed in the same manner as for the macrophages, except that the medium used was RPMI 1640 supplemented with 10% heat inactivated fetal calf serum, 2.0 mM L-glutamine, 50 units/mL penicillin, and 50 ∝g/mL streptomycin. IC50 values for the J774 and PC3 assays were determined with the software program SoftMax Pro as described earlier.

[8] = tested on: PC3 cells; experiment: Toxicity to PC3 cells (three-day CellTiter assay); type: cell-based; settings: read-out: IC50, PC3 prostate
Experimental: as §3

[9] = tested on: P. falciparum W2 strain; experiment: microbe, parasite or virus in culture; type: cell-based, Plasmodium falciparum
Experimental: as §1

[10] = tested on: L. donovani promastigotes; experiment: Flow cytometry of DNA content in L. donovani promastigotes; type: cell-based, Leishmania donovani; settings: 10 μM compound, 48 hour treatment of promastigotes
Experimental: Flow cytometry and fluorescence cell sorting. Parasites or J774 macrophages were incubated in T25 flasks (3-5 mL final volume) in the appropriate media described earlier for 24-48 h. Cultures contained 1% DMSO (v/v) in the presence or absence of test compounds. Cells were counted using a hemacytometer, then were centrifuged (1000×·g for parasites, 200×·g for macrophages) at 4° C. for 10 min (parasites) or 5 min (macrophages). Cells were resuspended in 150 μL of PBS (0.01 M phosphate, 0.137 M NaCl, and 2.7 mM KCl), then 350 μL of ice-cold methanol was added and the samples were fixed at −20° C. for 2-3 h. Cells were centrifuged as before and resuspended in PBS containing 0.1% TX-100, 5 μg/mL RNase A, and 10 μg/mL propidium iodide for 20-30 min. Centrifugation was repeated, then cells were resuspended in PBS to a final concentration of 5×10^5-10^6/mL and stored at 4° C. until analysis. Fluorescence cell sorting was conducted on a Beckman Coulter Elite flow cytometer.

[11] = Trypanosoma brucei, unit inferred
[12] = Leishmania donovani, 72 h, unit inferred, three-day tetrazolium dye assay, read-out: IC50, L. donovani axenic amastigotes
[13] = Leishmania donovani, Table 1, mean ± standard deviation of at least two independent measurements, read-out: IC50 vs. L. donovani amastigotes
[14] = mean ± standard deviation of at least two independent measurements
[15] = Plasmodium falciparum, D6, read-out: IC50, P. falciparum D6 strain
[16] = Mus musculus, J774, Table 4, mean ± SD of at least two independent experiments
[17] = Trypanosoma brucei, 72 h, Table 4, three-day tetrazolium dye assay
[18] = Plasmodium falciparum, W2, read-out: IC50, P. falciparum W2 strain
[19] = Leishmania donovani, 72 h, Table 4, three-day tetrazolium dye assay, mean ± SD, read-out: IC50, L. donovani axenic amastigotes

Structure (SMILES) | IC50 [2, 11] | IC50 [3, 12] | IC50 [3, 13] | IC50 ([1]; Leishmania donovani) | % Inhibition of Leishmanial Tubulin Assembly at 20 μM Compound [4] | IC50 [1, 14] | IC50 ([5]; Trypanosoma brucei, 48 h) | IC50 [6, 15] | IC50 [7, 16] | IC50 ([8]; Homo sapiens, PC-3, 72 h) | IC50 [2, 17] | IC50 [9, 18] | IC50 [3, 19] | also measured
N=C(N)c1ccc(OCCCCCOc2ccc(C(=N)N)cc2)cc1 [Pentamidine, reference compound] | 0.0194 ± 0.0069 µM | 2 ± 0.06 µM | 2 ± 0.06 µM | – | – | – | – | – | – | – | – | – | – | IC50 ([1]; Leishmania donovani, mean ± standard deviation of at least two independent measurements): 1.61 ± 0.22 µM
CCCCCN(CCCCC)c1c([N+](=O)[O-])cc(S(N)(=O)=O)cc1[N+](=O)[O-] [Compound 16] | – | – | 9 ± 0.7 µM | 8.02 ± 0.42 µM | 95 ± 5% | – | – | – | – | – | – | – | – | –
CCCNc1c([N+](=O)[O-])cc(S(N)(=O)=O)cc1[N+](=O)[O-] [Compound 13] | – | – | – | – | 43 ± 19% | 67 ± 18.4 µM | – | – | – | – | – | – | – | –
CCCNS(=O)(=O)c1cc([N+](=O)[O-])c(N(CCC)CCC)c([N+](=O)[O-])c1 [Compound 21, N1-Propyl-3,5-dinitro-N4,N4-di-n-propylsulfonilamide] | – | – | – | – | 97 ± 1% | 56 ± 2.3 µM | – | – | – | – | – | – | – | IC50 ([5]; Coulter counter after two-day incubation): 3 µM; IC50 ([6]; tritiated hypoxanthine uptake, read-out: IC50, P. falciparum D6 strain): 13 µM; IC50 [7]: 21.8 ± 2.1 µM; IC50 ([8]; three-day tetrazolium dye assay, mean ± SD): 40.5 ± 8.6 µM; IC50 [2]: 9.2 µM and 8.06 µM; IC50 ([9]; tritiated hypoxanthine uptake, read-out: IC50, P. falciparum W2 strain): > 25 µM; IC50 ([3]; read-out: IC50, L. donovani axenic amastigotes): 54.3 µM and 56.9 µM; IC50 ([3]; read-out: IC50 vs. L. donovani amastigotes): 56.9 ± 3.4 µM
CCCCN(CCCC)c1c([N+](=O)[O-])cc(S(N)(=O)=O)cc1[N+](=O)[O-] [Compound 15, 4(dibutylamino)-3,5-dinitrobenzenesulfonamide] | 2.57 ± 0.7 µM | 20.1 ± 0.2 µM | 20.1 ± 0.2 µM | 17.8 ± 2.6 µM | 89 ± 3% | – | 1.8 µM | 5.1 µM | 8.43 ± 0.69 µM | 17.2 ± 2.8 µM | 2.57 ± 0.7 µM | 4.3 µM | 20.1 ± 0.2 µM | IC50 ([7]; Mus musculus, J774, table after b111, unit inferred): 8.43 ± 0.69 µM; effect on cell cycle / DNA content by flow cytometry [10]: accumulate in the G2M phase of the cell cycle
CCCCCCN(CCCCCC)c1c([N+](=O)[O-])cc(S(N)(=O)=O)cc1[N+](=O)[O-] [Compound 17] | – | – | 11.7 ± 0.7 µM | 12.2 µM | 48 ± 19% | – | 5.6 µM | 10 µM | 1.91 ± 0.36 µM | 11.2 ± 1.3 µM | 9.48 ± 1.73 µM | 12 µM | 11.7 ± 0.7 µM | –
